Values quoted from earlier work in patent US20260335331A1, “ORAL FORMULATION OF DIAMINOPHENOTHIAZINES AND METHODS OF MAKING AND USING THE SAME IN THE TREATMENT AND/OR PREVENTION OF DISEASES” (priority 2022, published 2026).

Test system: Macrorhabdus ornithogaster
Details: background statement

C[C@@H]1[C@H](O)[C@@H](C)/C=C/C=C/C=C/C=C/C=C/C=C/C=C/[C@H](O[C@@H]2O[C@H](C)[C@@H](O)[C@H](N)[C@@H]2O)C[C@@H]2O[C@](O)(C[C@@H](O)C[C@@H](O)[C@H](O)CC[C@@H](O)C[C@@H](O)CC(=O)O[C@H]1C)C[C@H](O)[C@H]2C(=O)O [amphotericin B]
success in treatment of avian megalobacteriosis: Some success has been observed
